Key:
[1] = system: Capsicum (C. annuum L. var. California Wonder); test: Capsicum field trial, growth and yield; assay type: in vivo
Procedure: FIG. 10C illustrates a schematic representation of the final product utilized for soil treatment, according to some embodiments. The final products included ZIF-8, MiZax-3, and ZIF-8@MiZax-3. These products were added to the sand/soil for the field experiment. FIG. 10D illustrates pictures of a field experiment utilizing ZIF-8@MiZax-3, according to some embodiments. Capsicum (C. annuum L. var. California Wonder) seedlings used for the field trial were initially germinated in soil and grown until the 4-week-old stage in a greenhouse under a semi-controlled environment adjusted to 28° C. (day)/26° C. (night) temperature, under 12 hours-light photoperiod with 60% humidity for nursery. During the nursery period, seedlings were given Hoagland solution to boost their growth before transferring to the field. The uniformly selected seedlings were transferred to the field during the winter season. The field used for the capsicum trial for testing ZIF-8, MiZax-3, and ZIF-8@MiZax-3 was divided into plots and treatments were allocated by following randomized complete block design (RCBD) with three replications as previously described. Each plot size was around 2 m×1.2 m with a planting distance of 50 cm×60 cm (8 plants/plot). After a week of acclimation, the first soil treatments were completed by mixing ZIF-8 (˜33.3 mg/L soil), MiZax-3 (˜1.38 mg/L soil), and ZIF-8@MiZax-3 (˜33.3 mg/L soil) directly on top of each plant stem on the soil surface. The treatments were repeated twice with a month gap in between. Plants were watered with a drip irrigation system twice a day, with an average of half a liter of water per individual. Plant phenotyping data were collected until 13 weeks after transplanting (13WAT) stage to the field. FIG. 11B illustrates a graph of the number of buds per individual at 4WAT, according to some embodiments. […] Two consecutive harvests were completed to compare the total fresh fruit yield harvested per total number of plants (n=24) between treatments and mock. The ZIF-8, MiZax-3 and ZIF-8@MiZax-3 treatments enhanced the total yield by 26.37%, 31.76% and 35.11%, respectively. […] In addition, zinc fertilizers can alter the microbial communities in the rhizosphere, which promotes plant growth and eventually increases yield.

[2] = system: 3T3 cells; test: Cytotoxicity analysis, live-dead viability and CCK-8 assays; assay type: cell-based; details: viability after 24 hours
Excerpt: FIG. 10A illustrates a cytotoxicity analysis of precursor molecules, including Zn(NO3)2, 2-MIm, and MiZax-3, according to some embodiments. FIG. 10B illustrates a cytotoxicity analysis of ZIF-8 and ZIF-8@MiZax-3 complexes, according to some embodiments. Assessing the safety of this synthetic platform is critical. Accordingly, it is important to check if any of the materials or degraded building blocks are transferred from the rhizosphere to the actual fruit. For cytotoxicity analysis, live-dead viability and cell counting kit-8 (CCK-8) assays were performed according to the manufacturer's protocol. Briefly, 3T3 cells (1×10^4 cells per well) were seeded onto a 96-well plate. After 24 hours, cells were incubated with different concentrations (0.1, 0.5, 1, 5, 10, and 50 μg/mL) of ZIF-8 and ZIF-8 loaded with MiZax-3. In addition, to evaluate the cytotoxicity of the particles after degradation at low pH, 3T3 cells were incubated with Zn(NO3)2 and 2-MIm at concentrations of (0.01, 0.05, 0.1, 0.5, 1, 5, 10, and 50 μg/mL) and with MiZax-3 at (0.01, 0.05, 0.1, 0.5, 1, 5, 10, and 50 ng/mL). The cell viability was measured after 24 hours.

[3] = system: pepper fruits; test: LC-MS analysis of pepper fruits from field trial for MiZax-3; assay type: in vivo
[4] = Thermal stability in amino acid media, PBS and HEPES, 45° C. for 24 hours (UV-vis); assay type: physicochemical; details: amino acid and buffer (PBS, HEPES) solutions
Excerpt: Organic matter is combined with more than 90% of the nitrogen sources present in the soil, with 20%-40% of this ratio in amino form. The amino acid (AA) composition of soil organic matter depends on several factors, for instance, pH, plant interaction with other microorganisms, environmental factors (e.g., temperature and CO2 levels), and chemical and nutrient composition. Thus, considering the complexity of using soil as substrates for plants as well as the mechanisms that these undergo during their growth stages, it is important to develop more resistant materials that remain stable under certain conditions. To test the stability of ZIF-8@MiZax-3, it was dissolved in a series of AA media and incubated it at 45° C. for 24 hours. Additionally, PBS and HEPES solutions were utilized to assess the thermal stability in biological and physiological conditions.
A set of samples were prepared as follows: Aspartic acid (5 mM), Glutamine (5 mM), Histidine (5 mM), PBS (1×), Asparagine (5 mM), Glutamic acid (5 mM), Alanine (5 mM), HEPES (10 mM), Mixture of amino acids (5 mM) all in 5 mL of PBS and 1 drop of ethanol. Subsequently, the samples were vortexed for 10 seconds and incubated at 45° C. for 24 hours. […]
A decrease in intensity around 283 nm wavelength and remarkable shifts in the absorbance maxima of MiZax-3 were readily observed after the incubation period. […]

[5] = fresh fruit, total number of plants n=24

## COc1ccc(Oc2cccc(/C=C/C(C)=O)c2)cc1 [MiZax-3, (E)-4-(3-(4-methoxyphenoxy)phenyl) but-3-en-2-one]
[1]; 4WAT
  Number of flower buds per individual: significantly higher number of flower buds compared to the mock and ZIF-8 treated seedlings
  Plant height: significantly taller than mock and ZIF-8 treated plants
[1]; 13WAT, compared to mock, no statistically significant difference
  Average dry shoot biomass per individual plant: upwards trend
[1]; 13WAT, versus mock
  Plant health (appearance): healthier than the mock plants
[1]; capsicum field trial, soil treatment
  Average Total Fruit Number: 53.17
[1]; [5]
  Harvest-1: 4464.8 g
  Harvest-2: 5423.8 g
[1]; total yield versus mock
  Yield Enhancement: 31.76%
[1]; two harvests, total number of plants n=24
  Total Yield: 9888.6 g
[2]
  Concentration up to which high biocompatibility was exhibited: up to 50 ng/ml
[3]
  MiZax-3 in pepper fruits of treated plants: no detectible MiZax-3
[4]
  Shift of UV-vis absorption after thermal incubation: significant wavelength shifts up to 332 nm
